Laboratory results taken from US9102630B2, “Crystals of salts of phenylalanine derivatives” (AJINOMOTO CO., INC., priority 2010, dated 2015).
≈ marks a conversion by molar mass, not a printed value. Values belong to the compound of their own block, whether it stands above or below them.

Key:
Assay type in all cases: physicochemical
[1] = Determination of solubility in water (HPLC of supernatant); conditions: 25° C., 15 min, 50 mg suspended in 10 mL distilled water
Description: After 50 mg each of samples of the crystals prepared according to the foregoing methods and the crystal of the compound (I) in its free state was suspended in 10 mL of distilled water and then each suspension was stirred at room temperature for 15 minutes, the supernatant of each suspension was collected, then passed through a disposable filter of 0.2 μm for HPLC, 1 to 3.5 g of each filtered supernatant was dispensed, the volume thereof was increased up to 10 mL with a 90% aqueous solution of acetonitrile and finally the content of the compound (I) present in the supernatant was determined according to the HPLC while using the following conditions.
(Conditions for the HPLC Analysis)
(§1) Device Used: LC-10A Series (available from Shimadzu Corporation);
(§2) Column: Inertsil (available from GL Science Company) ODS-24.5 mm×150 mm, 5 μm, 40° C.;
(§3) Flow Rate: 1 mL/min, UV at 254 nm, 10 μL Injection;
(§4) Eluting Solution A: 0.1% TFA (trifluoroacetic acid)/water;
(§5) Eluting Solution B: 0.1% TFA/MeCN;
(§6) Gradient Program: 0→25 min (B: 0→90%).

[2] = Determination of storage stability (accelerated test, HPLC); conditions: 40° C., 75% RH, 2M (two months)
Description: The crystal of a salt of the compound represented by the formula (I) was inspected for the storage stability, when it was stored at 40° C., 75% RH over two months, according to the following method. The results observed for preferred crystals, i.e., forms Cl1, Br1, Br2, Ms1 and Ms3 crystals, among others, are summarized in the following Table 2. The data listed in Table 2 indicate that the crystals of the compound (I) in their preferred crystalline forms according to the present invention are particularly excellent in their storage stability.
The storage stability of each sample, which had been stored in a depository at 40° C., 75% RH over two months, was determined according to the HPLC analysis method.
More specifically, about 25 mg each of the crystals of the compound represented by the formula (I) was dispensed into a 50 mL volume measuring flask and then dissolved in a 90% aqueous solution of acetonitrile containing 0.1% TFA and the storage stability of the resulting solution was determined by the HPLC analysis under the following conditions.
(Conditions for HPLC Analysis)
as §1, §2, §3, §4, §5, §6

[3] = Determination of adsorption-desorption of water vapor; conditions: isothermal water vapor adsorption-desorption, 25° C.
Description: The crystals of the present invention were inspected for their water vapor adsorption-desorption ability using BELLSORP-aqua3 available from Nippon Bell Co., Ltd. More specifically, about 300 mg of the compound represented by the formula (I) was dispensed into a measuring tube, dried at 50° C. for 30 minutes and the amount of water vapor adsorbed on or desorbed from the crystal was determined under the following conditions:
Adsorption Temperature: 25° C.; Equilibration Time: 500 sec; Saturated Vapor Pressure: 3.169 kPa;
Excessively Introduced Amount: 0.2 or 1.0 cm^3 (STP)/g; Tolerance for Increase or Decrease of Adsorbed Amount: 0.2 or 1.0 cm^3 (STP)/g.

Compound: COC(=O)[C@H](Cc1ccc(-n2c(=O)c3cc(N(C)C)ccc3n(C)c2=O)cc1)NC(=O)c1c(Cl)cccc1Cl [Free State]
- Solubility in Water [1]: 0.12 µg/mL (≈ 0.211 µM)

Compound: COC(=O)[C@H](Cc1ccc(-n2c(=O)c3cc(N(C)C)ccc3n(C)c2=O)cc1)NC(=O)c1c(Cl)cccc1Cl [Form Cl1]
- Accelerated Test, Stability: initial sample still in existence [2]: 99.03% of the initial sample was still in existence.
- change in crystalline state at a high humidity [3]: only a very slight change in its crystalline state
- Solubility in Water ([1]; listed as Hydrochloride (Form Cl1)): 122 µg/mL (≈ 214 µM)

Compound: COC(=O)[C@H](Cc1ccc(-n2c(=O)c3cc(N(C)C)ccc3n(C)c2=O)cc1)NC(=O)c1c(Cl)cccc1Cl [Form Ms4]
- Solubility in Water ([1]; listed as Methane-sulfonate (Form Ms4)): 94 µg/mL (≈ 165 µM)

Compound: COC(=O)[C@H](Cc1ccc(-n2c(=O)c3cc(N(C)C)ccc3n(C)c2=O)cc1)NC(=O)c1c(Cl)cccc1Cl [Form Br1]
- Accelerated Test, Stability: initial sample still in existence [2]: 99.05% of the initial sample was still in existence.
- Solubility in Water ([1]; listed as HBr salt (Form Br1)): 120 µg/mL

Compound: COC(=O)[C@H](Cc1ccc(-n2c(=O)c3cc(N(C)C)ccc3n(C)c2=O)cc1)NC(=O)c1c(Cl)cccc1Cl [Form Br2]
- Accelerated Test, Stability: initial sample still in existence [2]: 98.13% of the initial sample was still in existence and
- change in crystalline state at a high humidity [3]: only a very slight change in its crystalline state
- Solubility in Water ([1]; listed as HBr salt (Form Br2)): 123 µg/mL

Compound: COC(=O)[C@H](Cc1ccc(-n2c(=O)c3cc(N(C)C)ccc3n(C)c2=O)cc1)NC(=O)c1c(Cl)cccc1Cl [Form Ts1]
- Solubility in Water ([1]; listed as Toluene-sulfonate (Form Ts1)): 97 µg/mL (≈ 170 µM)

Compound: COC(=O)[C@H](Cc1ccc(-n2c(=O)c3cc(N(C)C)ccc3n(C)c2=O)cc1)NC(=O)c1c(Cl)cccc1Cl [Form Ms1]
- Accelerated Test, Stability: initial sample still in existence [2]: 99.06% of the initial sample was still in existence.
- change in crystalline state at a high humidity [3]: only a very slight change in its crystalline state
- Solubility in Water ([1]; listed as Methane-sulfonate (Form Ms1)): 102 µg/mL (≈ 179 µM)

Compound: COC(=O)[C@H](Cc1ccc(-n2c(=O)c3cc(N(C)C)ccc3n(C)c2=O)cc1)NC(=O)c1c(Cl)cccc1Cl [Form Cl5]
- Solubility in Water ([1]; listed as Hydrochloride (Form Cl5)): 91 µg/mL (≈ 160 µM)

Compound: COC(=O)[C@H](Cc1ccc(-n2c(=O)c3cc(N(C)C)ccc3n(C)c2=O)cc1)NC(=O)c1c(Cl)cccc1Cl [Form Cl3]
- Solubility in Water ([1]; listed as Hydrochloride (Form Cl3)): 102 µg/mL (≈ 179 µM)

Compound: COC(=O)[C@H](Cc1ccc(-n2c(=O)c3cc(N(C)C)ccc3n(C)c2=O)cc1)NC(=O)c1c(Cl)cccc1Cl [Form Ms3]
- Accelerated Test, Stability: initial sample still in existence [2]: 97.41% of the initial sample was still in existence and
- Solubility in Water ([1]; listed as Methane-sulfonate (Form Ms3)): 109 µg/mL (≈ 191 µM)

Compound: COC(=O)[C@H](Cc1ccc(-n2c(=O)c3cc(N(C)C)ccc3n(C)c2=O)cc1)NC(=O)c1c(Cl)cccc1Cl [Form Cl2]
- Solubility in Water ([1]; listed as Hydrochloride (Form Cl2)): 101 µg/mL (≈ 177 µM)

Compound: COC(=O)[C@H](Cc1ccc(-n2c(=O)c3cc(N(C)C)ccc3n(C)c2=O)cc1)NC(=O)c1c(Cl)cccc1Cl [Form Ms2]
- Solubility in Water ([1]; listed as Methane-sulfonate (Form Ms2)): 115 µg/mL (≈ 202 µM)

The next lines start with the values.

- Solubility in Water ([1]; listed as Sulfate (Form S1)): 104 µg/mL (≈ 183 µM)
Compound: COC(=O)[C@H](Cc1ccc(-n2c(=O)c3cc(N(C)C)ccc3n(C)c2=O)cc1)NC(=O)c1c(Cl)cccc1Cl [Form S1]

- Solubility in Water ([1]; listed as Nitrate (Form N1)): 110 µg/mL (≈ 193 µM)
Compound: COC(=O)[C@H](Cc1ccc(-n2c(=O)c3cc(N(C)C)ccc3n(C)c2=O)cc1)NC(=O)c1c(Cl)cccc1Cl [Form N1]

- Solubility in Water ([1]; listed as Nitrate (Form N2)): 128 µg/mL (≈ 225 µM)
Compound: COC(=O)[C@H](Cc1ccc(-n2c(=O)c3cc(N(C)C)ccc3n(C)c2=O)cc1)NC(=O)c1c(Cl)cccc1Cl [Form N2]

- Solubility in Water ([1]; listed as Sulfate (Form S3)): 119 µg/mL (≈ 209 µM)
Compound: COC(=O)[C@H](Cc1ccc(-n2c(=O)c3cc(N(C)C)ccc3n(C)c2=O)cc1)NC(=O)c1c(Cl)cccc1Cl [Form S3]

- Solubility in Water ([1]; listed as Sulfate (Form S2)): 129 µg/mL (≈ 227 µM)
Compound: COC(=O)[C@H](Cc1ccc(-n2c(=O)c3cc(N(C)C)ccc3n(C)c2=O)cc1)NC(=O)c1c(Cl)cccc1Cl [Form S2]
